Experimental data: US9469650B2, “Melampomagnolide B derivatives” (BOARD OF TRUSTEES OF THE UNIVERSITY OF ARKANSAS, priority 2013, dated 2016)
Where two headings read alike, the source gives them in different places.

What was measured:
NCI-H23 = test: panel of 60 human tumor cell lines, growth inhibition (Non-Small Cell Lung Cancer); settings: Homo sapiens
ACHN = test: panel of 60 human tumor cell lines, growth inhibition (Renal Cancer); settings: Homo sapiens
HT29 = test: panel of 60 human tumor cell lines, growth inhibition (Colon Cancer); settings: for Percent Growth: HT29
SN12C = test: panel of 60 human tumor cell lines, growth inhibition (Renal Cancer); settings: Homo sapiens
COLO 205 = test: panel of 60 human tumor cell lines, growth inhibition (Colon Cancer); settings: Homo sapiens
NCI-H522 = test: panel of 60 human tumor cell lines, growth inhibition (Non-Small Cell Lung Cancer); settings: Homo sapiens
PC-3 = test: panel of 60 human tumor cell lines, growth inhibition (Prostate Cancer); settings: Homo sapiens
HCT-15 = test: panel of 60 human tumor cell lines, growth inhibition (Colon Cancer); settings: Homo sapiens
MDA-MB-231/ATCC = test: panel of 60 human tumor cell lines, growth inhibition (Breast Cancer); settings: Homo sapiens
M14 = test: panel of 60 human tumor cell lines, growth inhibition (Melanoma); settings: Homo sapiens
SF-539 = test: panel of 60 human tumor cell lines, growth inhibition (CNS Cancer); settings: Homo sapiens
CCRF-CEM = test: panel of 60 human tumor cell lines, growth inhibition (Leukemia); settings: Homo sapiens
HOP-92 = test: panel of 60 human tumor cell lines, growth inhibition (Non-Small Cell Lung Cancer); settings: Homo sapiens
NCI-H460 = test: as above; settings: Homo sapiens
NCI-H226 = test: as above; settings: Homo sapiens
MDA-MB-435 = test: panel of 60 human tumor cell lines, growth inhibition (Melanoma); settings: Homo sapiens

Question: `C=C1C(=O)O[C@H]2[C@H]1CC/C(COC(=O)OC)=C\CC[C@@]1(C)O[C@@H]21` [JVM 2-40] was tested. Which GI50 (NCI-H23; NCI-H23) did it give?
Answer: 13 µM

Question: What about the CC50 (NCI-H23; NCI-H23, read-out: LC50) of the same molecule?
Answer: 85.2 µM

Question: What about the IC (TGI) (NCI-H23; NCI-H23, read-out: TGI) of the same molecule?
Answer: 33.3 µM

Question: And the GI50 (ACHN)?
Answer: 2.4 µM

Question: What about the CC50 (ACHN; read-out: LC50) of the same molecule?
Answer: 32.2 µM

Question: And the IC (TGI) (ACHN; read-out: TGI)?
Answer: 8.17 µM

Question: What about the “Percent Growth” value (HT29; Log10 Concentration −4.0) of the same molecule?
Answer: −76%

Question: What about the “Percent Growth” value (HT29; Log10 Concentration −5.0) of the same molecule?
Answer: 83%

Question: And the “Percent Growth” value (HT29; Log10 Concentration −6.0)?
Answer: 99%

Question: What about the “Percent Growth” value (HT29; Log10 Concentration −7.0) of the same molecule?
Answer: 96%

Question: What about the “Percent Growth” value (HT29; Log10 Concentration −8.0) of the same molecule?
Answer: 96%

Question: And the GI50 (HT29; Homo sapiens, HT-29)?
Answer: 16.1 µM

Question: And the CC50 (HT29; Homo sapiens, HT-29, read-out: LC50)?
Answer: 68.6 µM

Question: And the IC (TGI) (HT29; Homo sapiens, HT-29, read-out: TGI)?
Answer: 33.2 µM

Question: And the GI50 (SN12C)?
Answer: 6.31 µM

Question: And the CC50 (SN12C; read-out: LC50)?
Answer: 64.4 µM

Question: And the IC (TGI) (SN12C; read-out: TGI)?
Answer: 22.6 µM

Question: What about the “Percent Growth” value (HL-60(TB); Log10 Concentration −4.0) of the same molecule?
Answer: −55%

Question: What about the “Percent Growth” value (HL-60(TB); Log10 Concentration −5.0) of the same molecule?
Answer: −12%

Question: And the “Percent Growth” value (HL-60(TB); Log10 Concentration −6.0)?
Answer: 68%

Question: And the “Percent Growth” value (HL-60(TB); Log10 Concentration −7.0)?
Answer: 91%

Question: What about the “Percent Growth” value (HL-60(TB); Log10 Concentration −8.0) of the same molecule?
Answer: 97%

Question: What about the GI50 (COLO 205; COLO 205) of the same molecule?
Answer: 2.25 µM

Question: What about the CC50 (COLO 205; COLO 205, read-out: LC50) of the same molecule?
Answer: 25 µM

Question: What about the GI50 (NCI-H522; NCI-H522) of the same molecule?
Answer: 1.07 µM

Question: And the CC50 (NCI-H522; NCI-H522, read-out: LC50)?
Answer: 5.82 µM

Question: What about the IC (TGI) (NCI-H522; NCI-H522, read-out: TGI) of the same molecule?
Answer: 2.5 µM

Question: What about the GI50 (PC-3; PC-3) of the same molecule?
Answer: 12 µM

Question: And the CC50 (PC-3; PC-3, read-out: LC50)?
Answer: 59.4 µM

Question: And the IC (TGI) (PC-3; PC-3, read-out: TGI)?
Answer: 26.7 µM

Question: And the GI50 (HCT-15; HCT-15)?
Answer: 1.96 µM

Question: And the CC50 (HCT-15; HCT-15, read-out: LC50)?
Answer: 28.9 µM

Question: And the IC (TGI) (HCT-15; HCT-15, read-out: TGI)?
Answer: 6.78 µM

Question: And the GI50 (MDA-MB-231/ATCC; MDA-MB-231)?
Answer: 3.54 µM

Question: What about the CC50 (MDA-MB-231/ATCC; MDA-MB-231, read-out: LC50) of the same molecule?
Answer: 46.7 µM

Question: What about the IC (TGI) (MDA-MB-231/ATCC; MDA-MB-231, read-out: TGI) of the same molecule?
Answer: 16.6 µM

Question: And the GI50 (M14; M14)?
Answer: 2.91 µM

Question: And the CC50 (M14; M14, read-out: LC50)?
Answer: 42.2 µM

Question: What about the IC (TGI) (M14; M14, read-out: TGI) of the same molecule?
Answer: 14.1 µM

Question: What about the GI50 (SF-539; SF-539) of the same molecule?
Answer: 2.56 µM

Question: What about the CC50 (SF-539; SF-539, read-out: LC50) of the same molecule?
Answer: 32.7 µM

Question: What about the IC (TGI) (SF-539; SF-539, read-out: TGI) of the same molecule?
Answer: 8.79 µM

Question: And the GI50 (CCRF-CEM; NCI five dose)?
Answer: 1.49 µM

Question: And the CC50 (CCRF-CEM; read-out: LC50)?
Answer: 98 µM

Question: What about the IC (TGI) (CCRF-CEM; read-out: TGI) of the same molecule?
Answer: 6.04 µM

Question: What about the GI50 (HOP-92; HOP-92, HOP-92, NCI five dose) of the same molecule?
Answer: 2.33 µM

Question: What about the CC50 (HOP-92; HOP-92, read-out: LC50) of the same molecule?
Answer: 30.7 µM

Question: What about the IC (TGI) (HOP-92; HOP-92, read-out: TGI) of the same molecule?
Answer: 7.99 µM

Question: What about the GI50 (NCI-H460; NCI-H460) of the same molecule?
Answer: 16.7 µM

Question: And the CC50 (NCI-H460; NCI-H460, read-out: LC50)?
Answer: 89.7 µM

Question: What about the GI50 (NCI-H226; NCI-H226) of the same molecule?
Answer: 7.07 µM

Question: What about the CC50 (NCI-H226; NCI-H226, read-out: LC50) of the same molecule?
Answer: 87.7 µM

Question: What about the IC (TGI) (NCI-H226; NCI-H226, read-out: TGI) of the same molecule?
Answer: 27.4 µM

Question: What about the GI50 (MDA-MB-435; MDA-MB-435) of the same molecule?
Answer: 3.63 µM

Question: What about the CC50 (MDA-MB-435; MDA-MB-435, read-out: LC50) of the same molecule?
Answer: 55.4 µM

Question: And the IC (TGI) (MDA-MB-435; MDA-MB-435, read-out: TGI)?
Answer: 16.8 µM
